In US4517197A, “-N-substituted phenyl-5-methoxymethyl-2-oxazolidinones and pharmaceutical compositions containing same” (Delalande S.A., priority 1980, dated 1985):

How the values were obtained:
[1] = tested on: generalized trembling caused by dl-5-hydroxytryptophane; experiment: Test A: potentiation in mice of generalized trembling caused by intraperitoneal injection of dl-5-hydroxytryptophane; format: in vivo; conditions: Mus musculus, po, dl-5-hydroxytryptophane 200 mg/kg intraperitoneal, read-out: Test A ED 50
Method: Test A: potentiation in mice of generalized trembling caused by an intraperitoneal injection (200 mg/kg) of dl-5-hydroxytryptophane, according to the procedure described by Gouret C. and Raynaud G. in J. Pharmacol. (Paris) (1974), 5, 231.

ptosis after reserpine = experiment: Test B: antagonism of ptosis observed an hour after intravenous injection of reserpine in mice; format: in vivo; conditions: Mus musculus, po, ptosis an hour after reserpine 2 mg/kg intravenous, read-out: Test B ED 50
Method: Test B: antagonism with respect to ptosis observed an hour after an intravenous injection (2 mg/kg) of reserpine in mice according to the procedure described by Gouret C. and Thomas J. in J. Pharmacol. (Paris), (1973), 4, 401.

Toxicity (mice) = conditions: mouse, in vivo, po, read-out: Toxicity (mice) LD 50

Structure (SMILES) | ED50 [1] [mg/kg] | ED50 (ptosis after reserpine) [mg/kg] | LD50 (Toxicity (mice)) [mg/kg]
Cc1cccc(N2CC(CO)OC2=O)c1 (centres unmarked) [TOLOXATONE, reference compound] | 60 | 50 | –
COCC1CN(c2ccc(OCCC(C)=O)cc2)C(=O)O1 (centres unmarked) [compound 238] | 1.9 | 1.1 | > 1000
COCC1CN(c2ccc(OCCc3cccc(Cl)c3)cc2)C(=O)O1 (centres unmarked) [compound 264] | 2.8 | 3 | > 1000
COCC1CN(c2ccc(OCCc3cccc(C#N)c3)cc2)C(=O)O1 (centres unmarked) [compound 267] | 1.8 | 1.3 | > 1000
COCC1CN(c2ccc(-c3ccc(Cl)cc3)cc2)C(=O)O1 (centres unmarked) [compound 269] | 1.7 | 1.2 | > 1000
COCC1CN(c2ccc(CC(=O)c3cccc(C#N)c3)cc2)C(=O)O1 (centres unmarked) [compound 270] | 0.2 | 0.2 | > 1000
COCC1CN(c2ccc(CCc3cccc(Cl)c3)cc2)C(=O)O1 (centres unmarked) [compound 271] | 4.1 | 3.8 | > 1000
COCC1CN(c2ccc(CCc3cccc(C#N)c3)cc2)C(=O)O1 (centres unmarked) [compound 272] | 0.5 | 0.4 | > 1000
COCC1CN(c2ccc(COc3cccc(Cl)c3)cc2)C(=O)O1 (centres unmarked) [compound 273] | 5.9 | 3.4 | > 1000
COCC1CN(c2ccc(CC(=O)c3cccc(Cl)c3)cc2)C(=O)O1 (centres unmarked) [compound 274] | 1.2 | 0.9 | > 1000
COCC1CN(c2ccc(COc3cccc(C#N)c3)cc2)C(=O)O1 (centres unmarked) [compound 275] | 0.6 | 0.3 | > 1000
COCC1CN(c2ccc(C#Cc3cccc(Cl)c3)cc2)C(=O)O1 (centres unmarked) [compound 277] | 1.2 | 1.7 | > 1000
COCC1CN(c2ccc(C#CC3CCCCC3)cc2)C(=O)O1 (centres unmarked) [compound 281] | 1.3 | 0.6 | > 1000
COCC1CN(c2ccc(C#Cc3cccc(C#N)c3)cc2)C(=O)O1 (centres unmarked) [compound 282] | 0.3 | 0.3 | > 1000
COCC1CN(c2ccc(-c3cccc(C#N)c3)cc2)C(=O)O1 (centres unmarked) [compound 284] | 1.2 | 1.3 | > 1000
COCC1CN(c2ccc(CCCCCC#N)cc2)C(=O)O1 (centres unmarked) [compound 289] | 0.15 | 0.2 | > 1000
